Results: the NIST ThermoML archive (doi:10.1016/j.jct.2006.07.025)

Experiment: xn = mol fraction of the nth substance listed
Details: for surface tension liquid-gas: Pendant drop shape; for mass density: 101 kPa, Liquid, Vibrating tube method

Cc1cc(C)cc(C)c1 [1,3,5-trimethylbenzene] + CCCOC(C)=O
Details | mass density [kg/m3] | surface tension liquid-gas [mN/m]
298.15 K, x2 = 0 | 861.04 | 28.09
298.15 K, x2 = 0.0498 | 861.7 | –
298.15 K, x2 = 0.0996 | 862.38 | 27.63
298.15 K, x2 = 0.1504 | 863.1 | –
298.15 K, x2 = 0.2006 | 863.85 | 27.16
298.15 K, x2 = 0.2502 | 864.63 | –
298.15 K, x2 = 0.3006 | 865.46 | 26.7
298.15 K, x2 = 0.3499 | 866.32 | –
298.15 K, x2 = 0.4003 | 867.23 | 26.27
298.15 K, x2 = 0.4498 | 868.17 | –
298.15 K, x2 = 0.4985 | 869.14 | 25.85
298.15 K, x2 = 0.5526 | 870.28 | –
298.15 K, x2 = 0.6001 | 871.33 | 25.46
298.15 K, x2 = 0.65 | 872.49 | –
298.15 K, x2 = 0.6987 | 873.7 | 25.09
298.15 K, x2 = 0.7369 | 874.66 | –
298.15 K, x2 = 0.7983 | 876.31 | 24.73
298.15 K, x2 = 0.8504 | 877.83 | –
298.15 K, x2 = 0.8995 | 879.31 | 24.35
298.15 K, x2 = 0.9397 | 880.63 | –
303.15 K, x2 = 0 | 856.96 | 27.67
303.15 K, x2 = 0.1 | 857.96 | 27.18
303.15 K, x2 = 0.2012 | 859.34 | 26.69
303.15 K, x2 = 0.2995 | 860.81 | 26.2
303.15 K, x2 = 0.3998 | 862.5 | 25.74
303.15 K, x2 = 0.4996 | 864.32 | 25.3
303.15 K, x2 = 0.6004 | 866.41 | 24.9
303.15 K, x2 = 0.7007 | 868.63 | 24.5
303.15 K, x2 = 0.7987 | 871.2 | 24.12
303.15 K, x2 = 0.9009 | 874.11 | 23.73
308.15 K, x2 = 0 | 852.84 | 27.24
308.15 K, x2 = 0.0985 | 853.66 | 26.73
308.15 K, x2 = 0.1992 | 854.81 | 26.2
308.15 K, x2 = 0.3018 | 856.13 | 25.69
308.15 K, x2 = 0.3991 | 857.53 | 25.21
308.15 K, x2 = 0.5009 | 859.15 | 24.75
308.15 K, x2 = 0.6012 | 861.08 | 24.33
308.15 K, x2 = 0.6997 | 863.19 | 23.91
308.15 K, x2 = 0.7983 | 865.52 | 23.52
308.15 K, x2 = 0.8997 | 868.19 | 23.11
313.15 K, x2 = 0 | 848.74 | 26.82
313.15 K, x2 = 0.0503 | 848.97 | –
313.15 K, x2 = 0.1004 | 849.28 | 26.28
313.15 K, x2 = 0.1501 | 849.65 | –
313.15 K, x2 = 0.1999 | 850.05 | 25.73
313.15 K, x2 = 0.2499 | 850.49 | –
313.15 K, x2 = 0.3004 | 851.02 | 25.19
313.15 K, x2 = 0.3502 | 851.58 | –
313.15 K, x2 = 0.3998 | 852.18 | 24.69
313.15 K, x2 = 0.449 | 852.83 | –
313.15 K, x2 = 0.5001 | 853.57 | 24.21
313.15 K, x2 = 0.5502 | 854.4 | –
313.15 K, x2 = 0.6 | 855.29 | 23.76
313.15 K, x2 = 0.6503 | 856.26 | –
313.15 K, x2 = 0.7005 | 857.33 | 23.33
313.15 K, x2 = 0.7499 | 858.44 | –
313.15 K, x2 = 0.8003 | 859.87 | 22.92
313.15 K, x2 = 0.8499 | 861.27 | –
313.15 K, x2 = 0.9003 | 862.85 | 22.5
313.15 K, x2 = 0.9504 | 864.3 | –
